Where “and” joins values, the source holds several entries; their conditions need not be identical. Equal values may be shown once. Read-outs that look alike come from different tables or passages of the source.
Legend:
[1] = test system: antizyme frameshifting (inducible 0 to +1 AZ1 construct) in HEK-293 cells; experiment: dual luciferase reporter assay for antizyme frameshifting; assay type: cell-based; conditions: for induction of antizyme frameshifting, comparison in words / frameshift-rescue factor (FRF): 25 μM; for induction of antizyme frameshifting, comparison in words: HEK-293 (FIG. 1, FIG. 2); for frameshift-rescue factor (FRF): % RF multiplied by inverse of rescue coefficient, HEK-293; for EC50: HEK-293 cells grown in 2.5 mM DFMO, 50% of maximum percent frameshifting (plateau, FIG. 3), read-out: EC50 for induction of frameshifting
Method: Frameshifting can be detected using a dual luciferase reporter system that measures the efficiency of antizyme translational frameshifting (Grentzmann, G. et. al., RNA 4:479–486 (1998); Howard, M. et. al., Genes to Cells 6:931–941 (2001)). Frameshifting efficiency is determined by comparing the ratio of firefly luciferase to renilla luciferase activity in cells transfected in parallel using a control vector containing a constitutive +1 frameshift (AZ-IF) that measures the in-frame translation efficiency and a vector containing the inducible 0 to +1 frameshift (AZ1) construct. In these constructs, the renilla luciferase gene is upstream of the firefly luciferase gene which are separated by a short cloning sequence containing the portions of antizyme 1 and 2 known to contain the mRNA signals for polyamine stimulated frameshifting. Using a 96-well format, this assay system gives a quantitative measure of the efficiency of the polyamines, polyamine analogs and other compounds to induce frameshifting in a cell-based bioassay. Cells must be pretreated with α-difluoromethylornithine (DFMO), an irreversible inhibitor of ODC, prior to screening to decrease the basal antizyme frameshifting levels and increase the sensitivity to polyamine or compound-mediated stimulation of antizyme frameshifting.
FIG. 1 is a tabular representation of a large number of polyamines A-S (25 μM) that were tested for their ability to induce antizyme frameshifting using the dual luciferase reporter assay. The percent relative frameshifting value (% RF) gives a comparison of the ability of a compound to induce frameshifting compared to 25 μM spermidine. The % RF was calculated as follows. The background percent frameshifting activity determined from the 2.5 mM DFMO negative control was subtracted from the percent frameshifting activity for all compounds including the spermidine control. The background corrected frameshifting activity of each compound was then divided by the background corrected frameshifting activity induced by 25 μM spermidine and multiplied by 100. The compounds were also evaluated for their ability to rescue cells from DFMO-induced growth inhibition by determining their rescue coefficient. The rescue coefficient represents the ratio of the cell growth, as measured by O.D., in the presence of the test compound with 2.5 mM DFMO to the growth in the presence of 2.5 mM DFMO alone. The frameshift-rescue factor (FRF) is a useful factor to compare the effectiveness of the various antizyme frameshifters by taking into account their potency for inducing frameshifting and ability to rescue cells from DFMO-induced growth inhibition. The FRF was calculated by multipling the % RF value by the inverse of the rescue coefficient.
Values represent percent frameshifting following transient transfection of an AZ1-IF control and the inducible 0 to +1 AZ1 plasmid construct into HEK-293 cells grown in the presence of 2.5 mM DFMO. The compounds were added to the cells after transfection and incubated overnight before assaying the next day. Each value represents triplicate measurements.
A series of compounds are screened for their ability to induce frameshifting using the dual luciferase reporter assay. HEK-293 cells are plated in white sided, clear-bottomed 96-well assay plates at 15,000 cells per well in 100 μL of medium (DMEM supplemented with 10% fetal bovine serum (Gibco), 1% penicillin, streptomycin and L-glutamine) containing 2.5 mM DFMO. The cells are incubated for 2-days at 37° C. in an atmosphere of 5% CO2. The medium is removed and the cells are then transfected with lipofectamine reagent (LifeTechnologies) using serum free DMEM. All cells are transfected overnight with 100 ng of the appropriate plasmid DNA and 0.3 μL lipofectamine in 50 μL of serum free DMEM containing 2.5 mM DFMO. The next day, 40 μL of medium is added per well containing 3.1 mM DFMO, 2.5 mM aminoguanidine and 25% FBS. […]

[2] = test system: HEK-293 cells; experiment: rescue from DFMO-induced growth inhibition; assay type: cell-based; conditions: 25 μM compound, 2.5 mM DFMO, 6 days
Method: FIG. 5 gives a comparison of the ability of antizyme frameshifters (25 μM) to rescue cells from 2.5 mM DFMO-induced growth inhibition compared to 25 μM spermidine (SPD) in a 6-day assay in HEK-293 cells. The rescue coefficient represents the ratio of cell growth, as measured by O.D., of the test compound with 2.5 mM DFMO versus 2.5 mM DFMO alone.
HEK-293 cells are plated in 96-well assay plates at 1,000 cells per well in 100 μL of medium (DMEM supplemented with 10% fetal bovine serum (Gibco), 1% penicillin, streptomycin and L-glutamine). The cells are incubated overnight at 37° C. in an atmosphere of 5% CO2. Compounds are added the next day to a final concentration of 25 μM along with 1 mM aminoguanidine (inhibits serum amine oxidase) and 2.5 mM DFMO in a final volume of 200 μL medium. The positive control contained 25 μM spermidine. The cells are allowed to incubate for 6 days before cell growth is measured by MTS/PMS dye assay (Cell Titer 96 Aqueous Non-Radioactive Cell Proliferation Assay, Promega). The rescue coefficients in FIG. 1 and FIG. 5 are expressed as the ratio of the O.D. ((compound+2.5 mM DFMO)/O.D. (2.5 mM DFMO alone)). Therefore, DFMO alone has a value of one. […] If the value is less than one, then the compound is growth inhibitory. If the value is 0, the compound is cytotoxic.

[3] = test system: MDA-MB-231 cells; experiment: growth inhibition, MDA-MB-231; assay type: cell-based; conditions: Homo sapiens; MDA-MB-231 cells (data not shown)
Method: (§1) Cells are plated in 96-well plates such that they would be in log growth for the duration of the assay. The day after plating, the polyamine analogs are added to the cells, and growth, if any, permitted to continue for six days in the presence of 1 mM AG and 1 μM SPD when appropriate. At the end of six days, cell growth is measured by MTS/PMS dye assay (Cell Titer 96 Aqueous Non-Radioactive Cell Proliferation Assay; Promega, Madison, Wis.). IC50 refers to the concentration of the polyamine analog that results in 50% of maximum cell growth inhibition.

[4] = test system: mouse kidney proximal tubule (MCT) cell; conditions: MCT cells; cited from earlier work
[5] = test system: prostate PC-3 cells; experiment: growth inhibition, PC-3; assay type: cell-based; conditions: Homo sapiens; prostate PC-3 cells (data not shown)
Method: as §1

[6] = test system: HEK-293 cells; experiment: cells; assay type: cell-based; conditions: for IC50: read-out: IC50 growth inhibition
Method: Cell number was determined by MTS/PMS assay from triplicate wells.
as §1

[7] = test system: antizyme frameshifting; conditions: cited from earlier work
[8] = test system: HEK-293 cells; experiment: depletion of intracellular polyamine levels (HPLC) and cell growth; assay type: cell-based
Method: FIG. 6 is a graph showing the effect of a 6-day incubation of compound A on HEK-293 cellular polyamine levels and cell growth. All flasks received 1 mM aminoguanidine. Cells were washed, counted, lysed in perchloric acid, dansylated and polyamine levels determined by HPLC. Each value represents the average of triplicate values with the error bars representing standard deviation.
FIG. 7 illustrates the effect of extracellular compound A on the intracellular concentration of compound A in HEK-293 cells as determined by HPLC. Cells were prepared as in FIG. 6. Peak area was normalized by dividing the peak area of the compound divided by the peak area of the internal standard, diaminoheptane. Values represent at least triplicate measurements with the error bars representing standard deviation.
Compound A is further evaluated to determine if it depletes intracellular polyamine levels in HEK-293 cells in a dose-dependent fashion (FIG. 6). HEK-293 cells are plated in 75 cm^2 flasks at 300,000 cells/mL to insure they would be in log growth for the duration of the experiment. After overnight incubation at 37° C. in an atmosphere of 5% CO2, compound A is added along with 1 mM aminoguanidine. The flasks are then incubated for 6 days at 37° C. in an atmosphere of 5% CO2. The cells are harvested by washing twice with ice-cold 1×PBS, trypsinized, counted, and lysed in 0.4 N perchloric acid. Diaminoheptane is used in all dansylation reactions as an internal standard. Peak area is normalized by dividing the peak area of the compound divided by the peak area of the internal standard. The HPLC method for the fluorometric detection of polyamines from the cell extracts is based on the procedure by Kabra (Kabra, P. M. et. al. J. Chromatogr. 380:19–32 (1986)).

[9] = target: ODC; conditions: read-out: Ki for ODC inhibition; cited from earlier work

Compound: N-(4-amino-1-butane-N-(3-aminopropyl-)-xylylenediamine [Compound B]
- induction of antizyme frameshifting, comparison in words [1]: more potent than agmatine
- frameshift-rescue factor (FRF) [1]: 83
- ability to rescue cells from DFMO-induced growth inhibition [2]: neither compound A nor B significantly rescue cells

Compound: N=C(N)NCCCCN [agmatine]
- IC50 [3]: ~2000 µM
- concentration of maximum growth inhibition [4]: ≤ 1 mM
- IC50 [5]: ~5000 µM
- IC50 ([6]; Homo sapiens, HEK293, HEK-293 cells (data not shown)): ~210 µM
- concentration of maximum frameshifting efficiency [7]: 4 mM
- frameshift-rescue factor (FRF) [1]: 17
- ability to rescue cells from DFMO-induced growth inhibition [2]: somewhat better than either A or B in rescuing cells

Compound: NCCCN(CCCN)Cc1ccc(CN(CCCN)CCCN)cc1 [Compound S]
- percent relative frameshifting (% RF) ([1]; 25 μM compound, relative to 25 μM spermidine): 100%
- ability to rescue cells from DFMO-induced growth inhibition [2]: no ability to rescue

Compound: NCCCNCCCCNCCCN [spermine, reference compound]
- EC50 ([1]; Homo sapiens, HEK293): 0.68 µM

Compound: N-(3-aminopropyl)-xylylenediamin [Compound A]
- cell growth decrease ([8]; 10 μM compound A, 6 days): 32%
- spermidine levels down by ([8]; 10 μM compound A, 6 days): about 90%
- cell growth decrease ([8]; 30 μM compound A, 6 days): 38.5%
- intracellular spermidine level ([8]; 100 μM compound A, 6 days): non-detectable
- spermine levels reduced by ([8]; 100 μM compound A, 6 days): 50%
- spermine levels, of normal ([8]; compound A levels above 30 μM): approximately 50%
- intracellular putrescine level ([8]; lowest concentration of compound A tested, 6 days): non-detectable
- IC50 ([6]; HEK-293, 6 days, 1 mM aminoguanidine): ~60 µM and 60 µM
- compound A concentrations at which 1 μM spermidine rescued cells from growth inhibition ([6]; HEK-293, 6 days, with 1 μM spermidine): 3 to 100 µM
- induction of antizyme frameshifting, comparison in words [1]: more potent than agmatine
- frameshift-rescue factor (FRF) [1]: 120
- EC50 [1]: ~120 µM
- ability to rescue cells from DFMO-induced growth inhibition [2]: neither compound A nor B significantly rescue cells

Compound: NC/C=C/CN [1,4-diamino-trans-2-butene]
- Ki [9]: 2 µM

Compound: NCCCCN [putrescine, reference compound]
- EC50 ([1]; Homo sapiens, HEK293): 0.95 µM

Compound: NCCCCNCCCN [spermidine, reference compound]
- EC50 ([1]; Homo sapiens, HEK293): 0.56 µM

Compound: Nc1ccc(N)cc1 [1,4-phenylenediamine]
- Ki [9]: 46 µM

Source: US7144920B2, “Polyamine analogs that activate antizyme frameshifting” (MediQuest Therapeutics, Inc., priority 2002, dated 2006)
